Experimental data reported in PubChem BioAssay (NCI).
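Protocol summary: plate cells (96-well), add compound at 5 concentrations, incubate 48 h, interpolate endpoints linearly. GI50 = concentration required for 50% inhibition of growth. TGI: concentration producing complete growth inhibition.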

Columns and labels:
Assay in all cases: growth of human tumour cells (NCI), 48 h
[1] = system: UACC-257 melanoma
[2] = system: OVCAR-4 ovarian
[3] = system: MCF7 breast
[4] = system: TK-10 renal
[5] = system: M14 melanoma
[6] = system: EKVX NSCLC
[7] = system: OVCAR-3 ovarian
[8] = system: OVCAR-8 ovarian
[9] = system: MDA-MB-435
[10] = system: ACHN renal
[11] = system: SR leukemia
[12] = system: MDA-MB-231 breast
[13] = system: SNB-75 CNS
[14] = system: HCT-15 colon
[15] = system: HCC-2998 colon
[16] = system: HS 578T breast
[17] = system: A549 NSCLC
[18] = system: SK-MEL-5 melanoma
[19] = system: OVCAR-5 ovarian
[20] = system: NCI-H460 lung
[21] = system: CCRF-CEM leukemia
[22] = system: SN12C renal
[23] = system: U251 CNS
[24] = system: RXF 393 renal
[25] = system: SF-539 CNS
[26] = system: IGROV1 ovarian
[27] = system: BT-549 breast
[28] = system: A498 renal
[29] = system: MALME-3M melanoma
[30] = system: HL-60(TB) leukemia
[31] = system: NCI-H23 lung
[32] = system: HCT-116 colon
[33] = system: MOLT-4 leukemia
[34] = system: PC-3 prostate
[35] = system: SF-295 CNS
[36] = system: UACC-62 melanoma
[37] = system: SK-OV-3 ovarian
[38] = system: HOP-62 NSCLC
[39] = system: SNB-19 CNS
[40] = system: SK-MEL-28 melanoma
[41] = system: UO-31 renal
[42] = system: KM12 colon
[43] = system: HOP-92 NSCLC
[44] = system: RPMI-8226 leukemia
[45] = system: CAKI-1 renal
[46] = system: NCI/ADR-RES ovarian
[47] = system: NCI-H226 lung
[48] = system: NCI-H522 lung
[49] = system: DU-145 prostate
[50] = system: SF-268 CNS
[51] = system: LOX IMVI melanoma
[52] = system: COLO 205 colon
[53] = system: SW-620 colon
[54] = system: HT29 colon
[55] = system: SK-MEL-2 melanoma
[56] = system: T-47D breast
[57] = system: 786-0 renal
[58] = system: K-562 leukemia

**Q.** For `O=C(/C=C/C12c3ccccc3C(c3ccccc31)C1C(=O)NC(=O)C12)c1ccncc1` (stereo unspecified), which GI50 [1] is on record?
**A.** 2.7 µM

**Q.** What about the TGI [1] of the same compound?
**A.** 9.19 µM

**Q.** What about the GI50 [2] of the same compound?
**A.** 2.65 µM

**Q.** What about the TGI [2] of the same compound?
**A.** 9.7 µM

**Q.** And the GI50 [3]?
**A.** 2.25 µM

**Q.** What about the TGI [3] of the same compound?
**A.** 12.6 µM

**Q.** What about the GI50 [4] of the same compound?
**A.** 2.61 µM

**Q.** What about the TGI [4] of the same compound?
**A.** 7.75 µM

**Q.** And the GI50 [5]?
**A.** 2.44 µM

**Q.** And the TGI [5]?
**A.** 7.65 µM

**Q.** What about the GI50 [6] of the same compound?
**A.** 6.02 µM

**Q.** What about the TGI [6] of the same compound?
**A.** 20.8 µM

**Q.** And the GI50 [7]?
**A.** 2.34 µM

**Q.** And the TGI [7]?
**A.** 5.96 µM

**Q.** And the GI50 [8]?
**A.** 2.41 µM

**Q.** And the TGI [8]?
**A.** 8.2 µM

**Q.** What about the GI50 [9] of the same compound?
**A.** 2.9 µM

**Q.** What about the TGI [9] of the same compound?
**A.** 8.36 µM

**Q.** And the GI50 [10]?
**A.** 2.83 µM

**Q.** What about the TGI [10] of the same compound?
**A.** 8.39 µM

**Q.** What about the GI50 [11] of the same compound?
**A.** 1.76 µM

**Q.** And the TGI [11]?
**A.** 7.34 µM

**Q.** And the GI50 [12]?
**A.** 3.13 µM

**Q.** What about the TGI [12] of the same compound?
**A.** 12.7 µM

**Q.** And the GI50 [13]?
**A.** 2.19 µM

**Q.** And the TGI [13]?
**A.** 10.9 µM

**Q.** What about the GI50 [14] of the same compound?
**A.** 1.46 µM

**Q.** What about the TGI [14] of the same compound?
**A.** 3.94 µM

**Q.** What about the GI50 [15] of the same compound?
**A.** 1.87 µM

**Q.** What about the TGI [15] of the same compound?
**A.** 3.68 µM

**Q.** What about the GI50 [16] of the same compound?
**A.** 3.04 µM

**Q.** And the TGI [16]?
**A.** 19.8 µM

**Q.** What about the GI50 [17] of the same compound?
**A.** 13.4 µM

**Q.** What about the TGI [17] of the same compound?
**A.** 27.2 µM

**Q.** And the GI50 [18]?
**A.** 1.72 µM

**Q.** What about the TGI [18] of the same compound?
**A.** 3.25 µM

**Q.** What about the GI50 [19] of the same compound?
**A.** 3.11 µM

**Q.** And the TGI [19]?
**A.** 13.5 µM

**Q.** What about the GI50 [20] of the same compound?
**A.** 2.16 µM

**Q.** And the TGI [20]?
**A.** 4.76 µM

**Q.** And the GI50 [21]?
**A.** 2.39 µM

**Q.** And the TGI [21]?
**A.** 8.87 µM

**Q.** And the GI50 [22]?
**A.** 2.55 µM

**Q.** And the TGI [22]?
**A.** 12 µM

**Q.** And the GI50 [23]?
**A.** 1.62 µM

**Q.** What about the TGI [23] of the same compound?
**A.** 3.34 µM

**Q.** And the GI50 [24]?
**A.** 1.74 µM

**Q.** And the TGI [24]?
**A.** 3.27 µM

**Q.** And the GI50 [25]?
**A.** 2.03 µM

**Q.** And the TGI [25]?
**A.** 5.72 µM

**Q.** What about the GI50 [26] of the same compound?
**A.** 2.39 µM

**Q.** And the TGI [26]?
**A.** 8 µM

**Q.** And the GI50 [27]?
**A.** 2.06 µM

**Q.** What about the TGI [27] of the same compound?
**A.** 5.93 µM

**Q.** And the GI50 [28]?
**A.** 14.1 µM

**Q.** And the TGI [28]?
**A.** 28.3 µM

**Q.** What about the GI50 [29] of the same compound?
**A.** 3.16 µM

**Q.** And the TGI [29]?
**A.** 12.2 µM

**Q.** And the GI50 [30]?
**A.** 1.76 µM

**Q.** What about the TGI [30] of the same compound?
**A.** 6.1 µM

**Q.** And the GI50 [31]?
**A.** 2.09 µM

**Q.** And the TGI [31]?
**A.** 4.45 µM

**Q.** What about the GI50 [32] of the same compound?
**A.** 1.58 µM

**Q.** What about the TGI [32] of the same compound?
**A.** 4.31 µM

**Q.** What about the GI50 [33] of the same compound?
**A.** 2.57 µM

**Q.** What about the TGI [33] of the same compound?
**A.** 9.17 µM

**Q.** And the GI50 [34]?
**A.** 1.97 µM

**Q.** What about the TGI [34] of the same compound?
**A.** 5.4 µM

**Q.** What about the GI50 [35] of the same compound?
**A.** 2.59 µM

**Q.** And the TGI [35]?
**A.** 7.54 µM

**Q.** What about the GI50 [36] of the same compound?
**A.** 1.87 µM

**Q.** And the TGI [36]?
**A.** 3.88 µM

**Q.** What about the GI50 [37] of the same compound?
**A.** 13.2 µM

**Q.** What about the TGI [37] of the same compound?
**A.** 26.7 µM

**Q.** And the GI50 [38]?
**A.** 2.4 µM

**Q.** And the TGI [38]?
**A.** 6.73 µM

**Q.** And the GI50 [39]?
**A.** 2.33 µM

**Q.** And the TGI [39]?
**A.** 7.46 µM

**Q.** What about the GI50 [40] of the same compound?
**A.** 2.1 µM

**Q.** And the TGI [40]?
**A.** 4.57 µM

**Q.** What about the GI50 [41] of the same compound?
**A.** 1.48 µM

**Q.** What about the TGI [41] of the same compound?
**A.** 4.8 µM

**Q.** And the GI50 [42]?
**A.** 1.85 µM

**Q.** What about the TGI [42] of the same compound?
**A.** 4.42 µM

**Q.** What about the GI50 [43] of the same compound?
**A.** 1.94 µM

**Q.** What about the TGI [43] of the same compound?
**A.** 6.27 µM

**Q.** What about the GI50 [44] of the same compound?
**A.** 2.11 µM

**Q.** What about the TGI [44] of the same compound?
**A.** 5.48 µM

**Q.** What about the GI50 [45] of the same compound?
**A.** 2.58 µM

**Q.** And the TGI [45]?
**A.** 11.7 µM

**Q.** What about the GI50 [46] of the same compound?
**A.** 2.31 µM

**Q.** And the TGI [46]?
**A.** 6.71 µM

**Q.** What about the GI50 [47] of the same compound?
**A.** 2.44 µM

**Q.** And the TGI [47]?
**A.** 6.98 µM

**Q.** What about the GI50 [48] of the same compound?
**A.** 1.61 µM

**Q.** And the TGI [48]?
**A.** 3.74 µM

**Q.** What about the GI50 [49] of the same compound?
**A.** 2.8 µM

**Q.** And the TGI [49]?
**A.** 11.8 µM

**Q.** What about the GI50 [50] of the same compound?
**A.** 2.46 µM

**Q.** And the TGI [50]?
**A.** 8.48 µM

**Q.** What about the GI50 [51] of the same compound?
**A.** 1.68 µM

**Q.** And the TGI [51]?
**A.** 3.51 µM

**Q.** And the GI50 [52]?
**A.** 3.57 µM

**Q.** What about the TGI [52] of the same compound?
**A.** 9.43 µM

**Q.** What about the GI50 [53] of the same compound?
**A.** 2.47 µM

**Q.** What about the TGI [53] of the same compound?
**A.** 7.95 µM

**Q.** What about the GI50 [54] of the same compound?
**A.** 1.96 µM

**Q.** What about the TGI [54] of the same compound?
**A.** 4.35 µM

**Q.** What about the GI50 [55] of the same compound?
**A.** 2.88 µM

**Q.** And the TGI [55]?
**A.** 7.72 µM

**Q.** And the GI50 [56]?
**A.** 2.82 µM

**Q.** What about the TGI [56] of the same compound?
**A.** 12.9 µM

**Q.** What about the GI50 [57] of the same compound?
**A.** 1.94 µM

**Q.** What about the TGI [57] of the same compound?
**A.** 4.76 µM

**Q.** What about the GI50 [58] of the same compound?
**A.** 1.88 µM

**Q.** And the TGI [58]?
**A.** > 100 µM
